Experiment: CT evaluation of initial uptake and vascular distribution of PH-50 in normal rabbits
Type: in vivo, New Zealand white rabbits
Procedure: One (1) mL of PH-50 injected as a bolus intravenously (IV) via the jugular vein (n=2); and three (3) mL with a five (5) minute infusion via IV by way of the jugular vein (n=2); using the criteria set forth below in Table 1:
The animals were anesthetized via mask using Isoflorene® prior to each study and maintained under anesthesia during CT scan procedures. The animals were recovered and were mobile and allowed to drink up to the 8 hour study. Digital Subtraction Angiography (DSA) was performed during initial injection (one IV bolus and one infusion), then each rabbit was immediately moved to CT. The CT was performed after the initial injection (one IV bolus and one infusion).
All CT imaging was performed using a GE® Sytec Sri Helical Scanner (Milwaukee, Wis.) and the images were stored as DICOM3 on GE® optical and CD-Rom medium. The CT imaging parameters for these studies were 1 mm consecutive slices at 120 kvp at 1.5 sec, 200 mA. All scans were done with a standard phantom placed beneath the animal. All CT scans performed were of the entire animal (rostral nasal area to pelvis). Contrast attenuation was measured in Hounsfield units (HU) and expressed as percent (%) uptake, taking into account the calibration from the phantom. The iodine concentration and iodine uptake were estimated post-injection from vascular, lung and liver tissues.

[1] = Rabbit No. 1156 (bolus), 60 min, pre-treatment = 0
[2] = Rabbit No. 1156 (bolus), 480 min, pre-treatment = 0
[3] = Rabbit No. 1156, bolus injection 1 mL IV (50 mg/kg), 0 min post injection
[4] = Rabbit No. 1156, bolus injection 1 mL IV (50 mg/kg), 5 min post injection
[5] = Rabbit No. 1156, bolus injection 1 mL IV (50 mg/kg), 15 min post injection
[6] = Rabbit No. 1156, bolus injection 1 mL IV (50 mg/kg), 60 min post injection
[7] = Rabbit No. 1156, bolus injection 1 mL IV (50 mg/kg), 480 min post injection
[8] = Rabbit No. 1159, bolus injection 1 mL IV (50 mg/kg), 15 min post injection
[9] = Rabbit No. 1159, bolus injection 1 mL IV (50 mg/kg), 60 min post injection
[10] = Rabbit No. 1159, bolus injection 1 mL IV (50 mg/kg), 480 min post injection
[11] = Rabbit No. 1166, infusion 3 mL/5 min IV (150 mg/kg), 15 min post injection
[12] = Rabbit No. 1166, infusion 3 mL/5 min IV (150 mg/kg), 60 min post injection
[13] = Rabbit No. 1166, infusion 3 mL/5 min IV (150 mg/kg), 480 min post injection

SMILES: CCOC(=O)CCCCCOC(=O)c1c(I)c(NC(C)=O)c(I)c(NC(C)=O)c1I [PH-50, 6-ethoxy-6-oxohexy-3,5-bis(acetylamino)-2,4,6-triiodobenzoate]
- Percent Uptake (%) Brain [1]: −3%
- Percent Uptake (%) Cardiac [1]: 18%
- Percent Uptake (%) Liver [1]: 19%
- Percent Uptake (%) Portal Vein [1]: 108%
- Percent Uptake (%) Posterior Vena Cava [1]: 33%
- Percent Uptake (%) Aorta [2]: 23%
- Percent Uptake (%) Brain [2]: −3%
- Percent Uptake (%) Cardiac [2]: 4%
- Percent Uptake (%) Liver [2]: −12%
- Percent Uptake (%) Portal Vein [2]: −5%
- Percent Uptake (%) Posterior Vena Cava [2]: 91%
- Hounsfield Units (HU) Aorta [3]: 65.00 HU
- Hounsfield Units (HU) Brain [3]: 29.00 HU
- Hounsfield Units (HU) Cardiac [3]: 54.00 HU
- Hounsfield Units (HU) Liver [3]: 85.00 HU
- Hounsfield Units (HU) Portal Vein [3]: 52.00 HU
- Hounsfield Units (HU) Posterior Vena Cava [3]: 51.00 HU
- Hounsfield Units (HU) Aorta [4]: 34.00 HU
- Hounsfield Units (HU) Brain [4]: 27.00 HU
- Hounsfield Units (HU) Cardiac [4]: 45.00 HU
- Hounsfield Units (HU) Liver [4]: 95.32 HU
- Hounsfield Units (HU) Portal Vein [4]: 58.08 HU
- Hounsfield Units (HU) Posterior Vena Cava [4]: 67.00 HU
- Hounsfield Units (HU) Aorta [5]: 40.85 HU
- Hounsfield Units (HU) Brain [5]: 29.03 HU
- Hounsfield Units (HU) Cardiac [5]: 44.02 HU
- Hounsfield Units (HU) Liver [5]: 91.73 HU
- Hounsfield Units (HU) Portal Vein [5]: 79.65 HU
- Hounsfield Units (HU) Posterior Vena Cava [5]: 40.31 HU
- Hounsfield Units (HU) Aorta [6]: 25.38 HU
- Hounsfield Units (HU) Brain [6]: 30.57 HU
- Hounsfield Units (HU) Cardiac [6]: 46.52 HU
- Hounsfield Units (HU) Liver [6]: 89.56 HU
- Hounsfield Units (HU) Portal Vein [6]: 87.37 HU
- Hounsfield Units (HU) Posterior Vena Cava [6]: 25.31 HU
- Hounsfield Units (HU) Aorta [7]: 19.20 HU
- Hounsfield Units (HU) Brain [7]: 30.50 HU
- Hounsfield Units (HU) Cardiac [7]: 40.65 HU
- Hounsfield Units (HU) Liver [7]: 66.15 HU
- Hounsfield Units (HU) Portal Vein [7]: 39.73 HU
- Hounsfield Units (HU) Posterior Vena Cava [7]: 36.24 HU
- Hounsfield Units (HU) Aorta [8]: 43.80 HU
- Hounsfield Units (HU) Brain [8]: 32.30 HU
- Hounsfield Units (HU) Cardiac [8]: 30.13 HU
- Hounsfield Units (HU) Liver [8]: 87.08 HU
- Hounsfield Units (HU) Portal Vein [8]: 53.54 HU
- Hounsfield Units (HU) Posterior Vena Cava [8]: 52.17 HU
- Hounsfield Units (HU) Aorta [9]: 43.83 HU
- Hounsfield Units (HU) Brain [9]: 34.39 HU
- Hounsfield Units (HU) Cardiac [9]: 44.96 HU
- Hounsfield Units (HU) Liver [9]: 94.17 HU
- Hounsfield Units (HU) Portal Vein [9]: 89.92 HU
- Hounsfield Units (HU) Posterior Vena Cava [9]: 65.48 HU
- Hounsfield Units (HU) Aorta [10]: 21.00 HU
- Hounsfield Units (HU) Brain [10]: 31.00 HU
- Hounsfield Units (HU) Cardiac [10]: 33.73 HU
- Hounsfield Units (HU) Liver [10]: 76.24 HU
- Hounsfield Units (HU) Portal Vein [10]: 39.15 HU
- Hounsfield Units (HU) Posterior Vena Cava [10]: 25.36 HU
- Hounsfield Units (HU) Aorta [11]: 20.82 HU
- Hounsfield Units (HU) Brain [11]: 27.15 HU
- Hounsfield Units (HU) Cardiac [11]: 47.51 HU
- Hounsfield Units (HU) Liver [11]: 117.99 HU
- Hounsfield Units (HU) Portal Vein [11]: 63.85 HU
- Hounsfield Units (HU) Posterior Vena Cava [11]: 43.09 HU
- Hounsfield Units (HU) Aorta [12]: 23.08 HU
- Hounsfield Units (HU) Brain [12]: 34.85 HU
- Hounsfield Units (HU) Cardiac [12]: 37.66 HU
- Hounsfield Units (HU) Liver [12]: 108.39 HU
- Hounsfield Units (HU) Portal Vein [12]: 59.87 HU
- Hounsfield Units (HU) Posterior Vena Cava [12]: 25.08 HU
- Hounsfield Units (HU) Aorta [13]: 14.30 HU
- Hounsfield Units (HU) Brain [13]: 38.90 HU
- Hounsfield Units (HU) Cardiac [13]: 35.31 HU
- Hounsfield Units (HU) Liver [13]: 63.20 HU
- Hounsfield Units (HU) Portal Vein [13]: 42.92 HU
- Hounsfield Units (HU) Posterior Vena Cava [13]: 39.35 HU
- adverse reactions to the compound (normal rabbits, 1 mL bolus or 3 mL/5 min infusion IV): no adverse reactions
- Hounsfield units in the liver post-injection (normal rabbits, CT): dramatic increase
